The NIST ThermoML archive (doi:10.1021/je0601457)
± gives the expanded uncertainty stated by the source.

Assay: xn = mol fraction of the nth substance listed
Conditions: linear displacement

CC(=O)c1cnccn1 [2-acetylpyrazine] + O=C=O
Conditions | mass density [kg/m3]
294.75 K, Liquid, x1 = 0.007 | 799 ± 32
296.15 K, Liquid, x1 = 0.025 | 758 ± 30
302.35 K, Liquid, x1 = 0.025 | 790 ± 32
302.35 K, Liquid, x1 = 0.054 | 922 ± 37
303.35 K, Liquid, x1 = 0.007 | 724 ± 29
306.25 K, Liquid, x1 = 0.081 | 946 ± 38
309.45 K, Liquid, x1 = 0.138 | 1276 ± 53
310.35 K, Liquid, x1 = 0.054 | 837 ± 34
311.05 K, Liquid, x1 = 0.161 | 938 ± 38
312.75 K, Gas, x1 = 0.007 | 601 ± 24
312.95 K, Liquid, x1 = 0.114 | 1092 ± 44
313.15 K, Liquid, x1 = 0.194 | 954 ± 44
313.65 K, Gas, x1 = 0.081 | 911 ± 37
314.35 K, Liquid, x1 = 0.138 | 1258 ± 53
314.45 K, Gas, x1 = 0.025 | 815 ± 33
321.25 K, Gas, x1 = 0.054 | 785 ± 31
321.45 K, Liquid, x1 = 0.161 | 918 ± 41
321.95 K, Liquid, x1 = 0.194 | 939 ± 38
322.05 K, Liquid, x1 = 0.295 | 1090 ± 45
322.25 K, Liquid, x1 = 0.138 | 1238 ± 50
323.05 K, Liquid, x1 = 0.114 | 1061 ± 46
332.55 K, Liquid, x1 = 0.448 | 1063 ± 43
332.75 K, Liquid, x1 = 0.138 | 1216 ± 50
332.85 K, Gas, x1 = 0.054 | 739 ± 30
333.45 K, Liquid, x1 = 0.194 | 920 ± 37
333.45 K, Liquid, x1 = 0.295 | 1014 ± 41
334.45 K, Gas, x1 = 0.081 | 856 ± 35
334.95 K, Liquid, x1 = 0.114 | 1023 ± 41
337.95 K, Liquid, x1 = 0.161 | 887 ± 36
340.45 K, Gas, x1 = 0.025 | 718 ± 29
343.75 K, Liquid, x1 = 0.295 | 998 ± 40
345.75 K, Liquid, x1 = 0.138 | 1187 ± 48
346.35 K, Liquid, x1 = 0.944 | 1013 ± 41
348.05 K, Liquid, x1 = 0.448 | 1037 ± 41
348.55 K, Liquid, x1 = 0.114 | 993 ± 40
348.75 K, Gas, x1 = 0.054 | 702 ± 28
351.15 K, Liquid, x1 = 0.194 | 892 ± 36
353.55 K, Gas, x1 = 0.081 | 807 ± 33
353.75 K, Liquid, x1 = 0.161 | 863 ± 36
356.05 K, Liquid, x1 = 0.295 | 979 ± 40
360.95 K, Liquid, x1 = 0.944 | 996 ± 40
363.05 K, Liquid, x1 = 0.138 | 1148 ± 46
364.85 K, Liquid, x1 = 0.114 | 945 ± 38
366.25 K, Liquid, x1 = 0.448 | 1007 ± 40
367.85 K, Liquid, x1 = 0.194 | 861 ± 35
368.75 K, Liquid, x1 = 0.295 | 956 ± 39
368.85 K, Gas, x1 = 0.025 | 628 ± 25
369.55 K, Gas, x1 = 0.081 | 772 ± 32
370.85 K, Liquid, x1 = 0.161 | 832 ± 34
371.05 K, Liquid, x1 = 0.944 | 992 ± 40
371.25 K, Gas, x1 = 0.054 | 648 ± 26
